According to ChEMBL document CHEMBL1201862, “PubChem BioAssay data set” (2004):
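Tested at 5 concentrations; 48 h exposure; 96-well plates; endpoints linearly interpolated, else capped at highest concentration. The concentration for 50% growth inhibition is given as GI50.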 The source made the active and inactive calls. No stated cut-off is given here; in the data, active = GI50 up to about 1.1 µM and inactive = higher.

Key:
Assay in all cases: growth of human tumour cells (NCI), 48 h
KM12 = test system: KM12
SN12C = test system: SN12C
SK-MEL-5 = test system: SK-MEL-5
SNB-75 = test system: SNB-75
SF-268 = test system: SF-268
UACC-62 = test system: UACC-62
A498 = test system: A498
Malme-3M = test system: Malme-3M
SK-MEL-2 = test system: SK-MEL-2
NCI-H522 = test system: NCI-H522
DLD-1 = test system: DLD-1
RPMI-8226 = test system: RPMI-8226
HOP-18 = test system: HOP-18
HCC 2998 = test system: HCC 2998
LXFL 529 = test system: LXFL 529
OVCAR-5 = test system: OVCAR-5
DMS-114 = test system: DMS-114
UO-31 = test system: UO-31
RXF 631 = test system: RXF 631
CCRF-CEM = test system: CCRF-CEM
HT-29 = test system: HT-29
RXF 393 = test system: RXF 393
SF-295 = test system: SF-295
OVCAR-4 = test system: OVCAR-4
HCT-116 = test system: HCT-116
NCI-H226 = test system: NCI-H226
SF-539 = test system: SF-539
EKVX = test system: EKVX
TK-10 = test system: TK-10
K562 = test system: K562
LOX IMVI = test system: LOX IMVI
HL-60 = test system: HL-60
UACC-257 = test system: UACC-257
CAKI-1 = test system: CAKI-1
IGROV-1 = test system: IGROV-1
NCI-H460 = test system: NCI-H460
HOP-62 = test system: HOP-62
KM-20L2 = test system: KM-20L2
SNB-19 = test system: SNB-19
NCI-H23 = test system: NCI-H23
M14 = test system: M14
SK-MEL-28 = test system: SK-MEL-28
A549 = test system: A549
HCT-15 = test system: HCT-15
SW-620 = test system: SW-620
U-251 = test system: U-251
XF498 = test system: XF498
OVCAR-3 = test system: OVCAR-3
MOLT-4 = test system: MOLT-4
M19-MEL = test system: M19-MEL
OVCAR-8 = test system: OVCAR-8
COLO 205 = test system: COLO 205
786-0 = test system: 786-0
DMS-273 = test system: DMS-273
HOP-92 = test system: HOP-92
ACHN = test system: ACHN
SK-OV-3 = test system: SK-OV-3
SNB-78 = test system: SNB-78
SR = test system: SR

Measured: GI50

COc1ccc2[nH]c3c(c2c1)[C@H]1CCC(C(C)(C)C)C[C@H]1[C@H]1C(=O)N(c2ccccc2)C(=O)[C@@H]31 (some centres undefined)
inactive: KM12 > 43.4 µM | SN12C 11.9 µM | SK-MEL-5 > 47.6 µM | SNB-75 5.97 µM | SF-268 13.1 µM | UACC-62 31 µM | A498 14.7 µM | Malme-3M 15.8 µM | SK-MEL-2 20 µM | NCI-H522 12.1 µM | DLD-1 13.5 µM | RPMI-8226 33.3 µM | HOP-18 25.6 µM | HCC 2998 36 µM | LXFL 529 69.3 µM | OVCAR-5 > 60.1 µM | DMS-114 21.9 µM | UO-31 24 µM | RXF 631 6.15 µM | CCRF-CEM 18.9 µM | HT-29 > 100 µM | RXF 393 9.42 µM | SF-295 7.18 µM | OVCAR-4 3.3 µM | HCT-116 12.4 µM | NCI-H226 27.6 µM | SF-539 5.4 µM | EKVX 32.7 µM | TK-10 22.6 µM | K562 20.6 µM | LOX IMVI 20.7 µM | HL-60 39.4 µM | UACC-257 24.2 µM | CAKI-1 12 µM | IGROV-1 > 58.7 µM | NCI-H460 6.9 µM | HOP-62 11.1 µM | KM-20L2 > 51.4 µM | SNB-19 16.3 µM | NCI-H23 12.1 µM | M14 8.22 µM | SK-MEL-28 44.3 µM | A549 12.7 µM | SW-620 20.2 µM | U-251 6.14 µM | XF498 9.91 µM | OVCAR-3 23.3 µM | MOLT-4 20.9 µM | M19-MEL 26.1 µM | OVCAR-8 6.84 µM | COLO 205 11.4 µM | 786-0 3.86 µM | DMS-273 32.7 µM | HOP-92 6.21 µM | ACHN 4.17 µM | SK-OV-3 15.6 µM
> 100 µM: HCT-15

O=c1cc(-c2ccc(Cl)cc2)oc2cc(OCCCOc3ccc4c(=O)cc(-c5ccc(Cl)cc5)oc4c3)ccc12
> 100 µM: HCT-15
inactive: KM12 > 100 µM | SN12C > 100 µM | SK-MEL-5 > 100 µM | SNB-75 45.2 µM | SF-268 > 100 µM | UACC-62 > 100 µM | Malme-3M > 100 µM | SK-MEL-2 > 100 µM | NCI-H522 > 100 µM | DLD-1 > 100 µM | RPMI-8226 > 100 µM | HOP-18 > 100 µM | HCC 2998 > 100 µM | LXFL 529 > 100 µM | OVCAR-5 > 100 µM | DMS-114 > 100 µM | RXF 631 > 100 µM | CCRF-CEM > 100 µM | HT-29 > 100 µM | RXF 393 > 100 µM | SF-295 > 100 µM | OVCAR-4 > 100 µM | HCT-116 > 100 µM | NCI-H226 > 100 µM | SF-539 > 100 µM | EKVX > 100 µM | TK-10 > 100 µM | SNB-78 > 100 µM | K562 > 100 µM | LOX IMVI > 100 µM | HL-60 > 100 µM | UACC-257 > 100 µM | CAKI-1 > 100 µM | IGROV-1 > 100 µM | NCI-H460 > 100 µM | HOP-62 > 100 µM | KM-20L2 > 100 µM | SNB-19 > 100 µM | NCI-H23 > 100 µM | M14 > 100 µM | SK-MEL-28 > 100 µM | A549 > 100 µM | SW-620 > 100 µM | U-251 > 100 µM | XF498 > 100 µM | OVCAR-3 > 100 µM | MOLT-4 > 100 µM | M19-MEL > 100 µM | OVCAR-8 > 100 µM | COLO 205 > 100 µM | 786-0 > 100 µM | DMS-273 > 100 µM | HOP-92 > 100 µM | ACHN > 100 µM | SR > 100 µM | SK-OV-3 > 100 µM
